{"source": "patent EP1200395B1", "about": "“UREA DERIVATIVES AS INHIBITORS OF CCR-3 RECEPTOR” (KIRIN BEER KABUSHIKI KAISHA, priority 1999, dated 2001)", "key": {"[1]": {"biological_target": "T1, CCR-3 (Homo sapiens, UniProt P51677)", "T1 sequence (P51677 1-355)": "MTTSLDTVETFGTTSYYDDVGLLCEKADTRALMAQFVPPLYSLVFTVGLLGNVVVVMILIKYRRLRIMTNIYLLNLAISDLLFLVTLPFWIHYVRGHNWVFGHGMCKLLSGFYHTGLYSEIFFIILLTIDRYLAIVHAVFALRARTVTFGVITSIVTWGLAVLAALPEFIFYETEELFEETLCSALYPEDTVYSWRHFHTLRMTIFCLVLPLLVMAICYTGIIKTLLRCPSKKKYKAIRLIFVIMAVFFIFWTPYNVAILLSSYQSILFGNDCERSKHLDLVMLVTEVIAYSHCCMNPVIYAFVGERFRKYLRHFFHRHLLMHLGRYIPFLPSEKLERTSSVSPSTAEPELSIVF", "assay": "Eotaxin-induced chemotaxis of CCR-3 transfectant cells (CCR3/U937)", "assay_type": "cell-based", "parameters": "expressed in transfected cells; host or cells: U937", "details": "U-937; 10 µM test compound; eotaxin 1 x 10^-9 M; CCR3/U937 cells (Table 3c)"}, "[2]": {"tested_on": "eosinophil infiltration to bronchoalveolar lavage fluid (BALF)", "assay": "Eosinophil infiltration in bronchoalveolar lavage fluid (BALF), murine asthma model", "assay_type": "in vivo, Male BALB/c mice", "details": "administered intraperitoneally for 9 days; two hundred cells counted per slide; Figure 2C", "description": "(§1) Male BALB/c mice were immunized by an intraperitoneal injection of 10 µg OVA adsorbed to 1 mg aluminum hydroxide gel (alum). A booster injection of the same dose of alum-adsorbed OVA was given 5 days later. Unitnmunized control mice received saline.\n(§2) Twelve days after primary immunization, both the immunized and unimmunized mice were exposed to aerosolized antigen. Aerosolization of OVA was performed using a nose-only aerosol chamber adapted for mice. Animals were exposed for 10 minutes to 5 mg/ml OVA aerosolized by an ultrasonic nebulizer (NE-U12, Omron, Tokyo, Japan) driven by a vacuum pump. The antigen bronchoprovocation was repeated on day 16 and day 20 under the same conditions. Compound No. 298 (CPD No. 298) was dissolved in saline containing 2 % DMSO and 2 % Cremophore and administered intraperitoneally for 9 days, starting on the first day of antigen inhalation.\nImmediately after the measurement of airway reactivity to acethycholine, BALF was collected by lavaging whole-lung three times with 0.7-ml aliquots of physiological saline containing 0.1 % BSA via the tracheal cannula while gently massaging the thorax. The BALF recovered from one mouse was pooled, centrifuged, and the cells were resuspended in 100 µl saline containing 0.1 % BSA. Cell numbers were determined using a hemocytometer and 2 x 10^4 cells were cytecetrifuged onto a glass slide. […]"}, "[3]": {"tested_on": "bronchoconstriction provoked by acetylcholine", "assay": "Airway hyperreactivity: bronchoconstriction provoked by acetylcholine (murine asthma model, OVA-immunized mice)", "assay_type": "in vivo, Male BALB/c mice", "details": "administered intraperitoneally for 9 days, starting on the first day of antigen inhalation; Figure 2A", "description": "as §1, §2\nTwenty-four hours after the final aerosol exposure, bronchoconstriction was measured by the overflow method of Konzett and Rössler. […] Bronchoconstriction was recorded on a flatbed recorder (Model FBR-252A, TOA Electronics Ltd., Tokyo, Japan). […]"}, "[4]": {"tested_on": "collagen-induced arthritis", "assay": "Type II collagen-induced arthritis in mice, clinical score", "assay_type": "in vivo, Male DBA/1 mice", "details": "20 mg/kg per day subcutaneously starting at 2nd immunization; versus control vehicle; Figure 1A/1B"}}}
{"smiles": "CC[N+](CCCNC(=O)Nc1ccccc1)(CCc1ccc(Cl)cc1)Cc1ccc(Cl)cc1.[I-]", "note": "(stereo not shown) [Compound 298, [3-(Phenylureido)propyl][2-(4-chlorophenyl)ethyl](4-chlorobenzyl)ethylammonium iodide]", "values": [{"measurement": "inhibition at 10 µM", "setting": "[1]", "value": 100, "unit": "%"}, {"measurement": "eosinophil infiltration to bronchoalveolar lavage fluid (BALF)", "setting": "[2]", "value": "significantly suppressed eosinophil infiltration"}, {"measurement": "bronchoconstriction provoked by acetylcholine", "setting": "[3]", "value": "Inhibition of bronchoconstriction"}, {"measurement": "clinical score, collagen-induced arthritis", "setting": "[4]", "value": "marked prevention in clinical score"}]}
